This note sets out measurements from patent publication US5082838A, “Sulfur-containing fused pyrimidine derivatives, their production and use” (Takeda Chemical Industries, Ltd., priority 1989, dated 1992).

Assay [1] deals with Endothelin Induced Pressor and Depressor Responses. Nature of the assay: Inhibitory effects on endothelin induced pressor and depressor responses in conscious beagle dogs. In kind it is in vivo. The text has this:
Inhibitory Effects on Endothelin Induced Pressor and Depressor Responses in Conscious Beagle Dogs
Using 10 male beagles (12-14 kg, 8-10 months old), a polyethylene cannula (PEG-100) was inserted into each of the left femoral artery and vein of each beagle after pentobarbital anesthesia. The experiment was started from 3 to 7 days after the operation. The cannula was connected to a pressure transducer to measure the systemic blood pressure. The endothelin antagonistic activity of the compound obtained in Example 65 was examined, taking the depressor and pressor responses due to the intravenous administration of endothelin as its indication. […]

Assay [2] has as its system Ischemic and Reperfused Rat Heart. As to the kind of experiment: Depressing effect against evolution of infarct size in ischemic and reperfused rat heart. As to conditions: 100 mg/kg p.o. 2 hours before occlusion and 5 hours after reperfusion; n = 5; control 36.7 ± 1.4 (12); P < 0.01. In kind it is in vivo, Male Wistar rats. How it is done: Depressing Effect Against Evolution of Infarct Size in Ischemic and Reperfused Rat Heart
Male Wistar rats were medianly dissected under pentobarbital anesthesia, and left anterior descending coronary artery was occluded at its origin for 1 hour, followed by resumption of Blood flowing. The chest was closed 30 to 60 minutes after the reperfusion, and the rates were kept under conscious state. After 24 hours, the rats were anesthetized again and the hearts were excised. The left ventricle of each heart was divided into six parts, and these divided parts were stained with 1% triphenyltetrazolium chloride solution at 37° C. for 15 minutes. Then, infarcted portions were weighed.
The compound obtained in Example 127 was orally administered in a dose of 100 mg/kg as a gum arabic suspension 2 hours before the occlusion and 5 hours after the reperfusion.

Another assay relates to endothelin constriction. Nature of the assay: Inhibitory effects on endothelin induced contraction in porcine coronary arteries (LAD rings). In kind it is cell-based. Particulars: Sus scrofa, endothelin 3×10^-9 M, read-out: Inhibition (%) of maximum contraction by endothelin. How it is done:
Inhibitory Effects of the Compounds on […] Induced Contraction in Porcine Coronary Arteries
Ring preparation of porcine left arterior descending coronary arteries (LAD) were suspended in 20 ml baths containing Krebs-Henseleit solutions at 37° C. gassed with 97% O2 -3% CO2. Endothelin (3×10^-9 M) was added to the baths, and after the constriction reached the steady state, the compounds at concentrations of […] and 10^-5 M (Examples 45, 48 and 127) were added to the bath. Then, the relaxation activity was examined. The relaxation activity of the compounds was expressed as % inhibition from the maximum contraction by endothelin.

[3] abbreviates: 1 mg/kg, i.v., 5 min after administration, n = 4.
The mark [4] stands for this setting: 1 mg/kg, i.v., 1 hr after administration, n = 4.
Where [5] appears, read: 1 mg/kg, i.v., 2 hr after administration, n = 4.
The mark [6] stands for this setting: 1 mg/kg, i.v., 4 hr after administration, n = 4.
The mark [7] stands for this setting: 1 mg/kg, i.v., 6 hr after administration, n = 4.
Where [8] appears, read: 10 mg/kg, p.o., 1 hr after administration, n = 3.
[9] abbreviates: 10 mg/kg, p.o., 2 hr after administration, n = 3.
Setting [10] is: 10 mg/kg, p.o., 4 hr after administration, n = 3.
Setting [11] is: 10 mg/kg, p.o., 8 hr after administration, n = 3.

SMILES strings stand for the structures.

In general, inhibition refers to the drop in the measured response relative to a control, in per cent. Turning to `CCCn1c(=O)c(-c2ccccc2)c2n(c1=O)CC=CS2` [Example 127, 9-Phenyl-7-propyl-4H,6H-pyrimido[6,1-b][1,3]thiazine6,8(7H)-dione], the “% inhibition of Depressor Response” value in assay [1] (setting [3]) is 86 ± 9%; in assay [1] (setting [4]) it was 74 ± 11%; in assay [1] (setting [5]), 57 ± 10%; in assay [1] (setting [6]) it was 31 ± 13%; in assay [1] (setting [7]), 30 ± 8%; in assay [1] (setting [8]) it was 34 ± 9%. Also, the entries for the “% inhibition of Depressor Response” value in assay [1] (setting [9]), in assay [1] (setting [10]) and in assay [1] (setting [11]) were 81 ± 10%, 67 ± 12% and 50 ± 0%, respectively. The “% inhibition of Pressor Response” value is recorded as 100% in assay [1] (setting [3]); 55 ± 7% in assay [1] (setting [4]); 55 ± 7% in assay [1] (setting [5]); 38 ± 15% in assay [1] (setting [6]); 32 ± 10% in assay [1] (setting [7]); 37 ± 10% in assay [1] (setting [8]). The “% inhibition of Pressor Response” value in assay [1] (setting [9]) is 85 ± 10%; in assay [1] (setting [10]), 76 ± 12%; in assay [1] (setting [11]) it was 43 ± 4%. Also, the “ratio of the weight of the infarcted region to the weight of the left ventricles” value in assay [2] is reported as 26.8 ± 3.1%. Besides, the inhibition at 10 µM with endothelin constriction (10^-5 M) was 90%. In addition, the inhibition at 1 µM in the assay on endothelin constriction (10^-6 M) was determined as 82.3%.
